Experimental data as given in ChEMBL document CHEMBL3352247, “Synthesis and antimycobacterial evaluation of 5-alkylamino-N-phenylpyrazine-2-carboxamides” (Bioorg Med Chem, 2015).
Converted amounts (≈) assume the structure as drawn. The source made the active and inactive calls. The calls are words filed in the database; no cut-off is given here.

Columns and labels:
Staphylococcus aureus [1] = experiment: Antibacterial activity against Staphylococcus aureus CCM 4516/08 after 24 to 48 hrs by broth microdilution method; format: functional, organism-based
Escherichia coli = experiment: Antibacterial activity against Escherichia coli CCM 4517 after 24 to 48 hrs by broth microdilution method; format: functional, organism-based
Pseudomonas aeruginosa = experiment: Antibacterial activity against Pseudomonas aeruginosa CCM 1961 after 24 to 48 hrs by broth microdilution method; format: functional, organism-based
Staphylococcus aureus [2] = experiment: Antibacterial activity against methicillin-resistant Staphylococcus aureus H 5996/08 clinical isolate after 24 to 48 hrs by broth microdilution method; format: functional, organism-based
[3] = tested on: Staphylococcus epidermidis; experiment: Antibacterial activity against Staphylococcus epidermidis H 6966/08 clinical isolate after 24 to 48 hrs by broth microdilution method; format: functional, organism-based
Enterococcus sp. [4] = experiment: Antibacterial activity against Enterococcus sp. J 14365/08 clinical isolate after 24 to 48 hrs by broth microdilution method; format: functional, organism-based
Klebsiella pneumoniae [5] = experiment: Antibacterial activity against Klebsiella pneumoniae D 11750/08 clinical isolate after 24 to 48 hrs by broth microdilution method; format: functional, organism-based
Klebsiella pneumoniae [6] = experiment: Antibacterial activity against ESBL-positive Klebsiella pneumoniae J 14368/08 clinical isolate after 24 to 48 hrs by broth microdilution method; format: functional, organism-based
Candida albicans = experiment: Antifungal activity against Candida albicans ATCC 44859 after 24 to 48 hrs by two-fold dilution method; format: functional, organism-based
Candida tropicalis = experiment: Antifungal activity against Candida tropicalis 156 after 24 to 48 hrs by two-fold dilution method; format: functional, organism-based
Pichia kudriavzevii = experiment: Antifungal activity against Candida krusei E28 after 24 to 48 hrs by two-fold dilution method; format: functional, organism-based
Nakaseomyces glabratus = experiment: Antifungal activity against Candida glabrata 20/I after 24 to 48 hrs by two-fold dilution method; format: functional, organism-based
Trichosporon asahii = experiment: Antifungal activity against Trichosporon asahii 1188 after 24 to 48 hrs by two-fold dilution method; format: functional, organism-based
Aspergillus fumigatus = experiment: Antifungal activity against Aspergillus fumigatus 231 after 24 to 48 hrs by two-fold dilution method; format: functional, organism-based
Lichtheimia corymbifera = experiment: Antifungal activity against Absidia corymbifera 272 after 24 to 48 hrs by two-fold dilution method; format: functional, organism-based
[7] = tested on: Trichophyton mentagrophytes; experiment: Antifungal activity against Trichophyton mentagrophytes 445 after 72 to 120 hrs by two-fold dilution method; format: functional, organism-based
[8] = tested on: Mycobacterium tuberculosis; experiment: Antimycobacterial activity against Mycobacterium tuberculosis H37Rv CNCTC My 331/88 after 10 to 14 days by AlamarBlue assay; format: functional
Mycobacterium kansasii = experiment: Antimycobacterial activity against Mycobacterium kansasii CNCTC My 235/80 after 5 to 7 days by AlamarBlue assay; format: functional
[9] = Antimycobacterial activity against Mycobacterium avium subsp. avium Chester CNCTC My 80/72 after 5 days by AlamarBlue assay; format: functional; conditions: Chester CNCTC My 80/72, 120 h
Enterococcus sp. [10] = experiment: Antibacterial activity against Enterococcus sp. after 24 to 48 hrs by broth microdilution method; format: functional

Row | SMILES | Activity (Staphylococcus aureus [1]) | Activity (Escherichia coli) | Activity (Pseudomonas aeruginosa) | Activity (Staphylococcus aureus [2]) | Activity [3] | Activity (Enterococcus sp. [4]) | Activity (Klebsiella pneumoniae [5]) | Activity (Klebsiella pneumoniae [6]) | Activity (Candida albicans) | Activity (Candida tropicalis) | Activity (Pichia kudriavzevii) | Activity (Nakaseomyces glabratus) | Activity (Trichosporon asahii) | Activity (Aspergillus fumigatus) | Activity (Lichtheimia corymbifera) | Activity [7] | MIC [8] | MIC (Mycobacterium kansasii) | MIC [9] [µg/mL] | Activity (Enterococcus sp. [10]) | other results
1 | CCCCCCCNc1cnc(C(=O)Nc2ccccc2Cl)cn1 | inactive | inactive | inactive | inactive | inactive | inactive | inactive | inactive | inactive | inactive | inactive | inactive | inactive | inactive | inactive | inactive | 36 µM | > 25 µg/mL | > 25 | Active | –
2 | CCCCCNc1cnc(C(=O)Nc2ccccc2)cn1 | inactive | inactive | inactive | inactive | inactive | inactive | inactive | inactive | inactive | inactive | inactive | inactive | inactive | inactive | inactive | inactive | 11 µM | 11 µM | > 100 | Active | –
3 | CCCCCNc1cnc(C(=O)Nc2ccccc2Cl)cn1 | inactive | inactive | inactive | inactive | inactive | inactive | inactive | inactive | inactive | inactive | inactive | inactive | inactive | inactive | inactive | inactive | > 100 µg/mL | > 100 µg/mL | > 100 | Active | –
4 | CCCCNc1cnc(C(=O)Nc2ccccc2Cl)cn1 | inactive | inactive | inactive | inactive | inactive | inactive | inactive | inactive | inactive | inactive | inactive | inactive | inactive | inactive | inactive | inactive | > 100 µg/mL | > 100 µg/mL | > 100 | – | MIC (Enterococcus sp. [10]): 62.5 µM (≈ 19 µg/mL)
5 | CCCCCCCCNc1cnc(C(=O)Nc2ccccc2Cl)cn1 | inactive | inactive | inactive | inactive | inactive | inactive | inactive | inactive | inactive | inactive | inactive | inactive | inactive | inactive | inactive | inactive | > 25 µg/mL | > 25 µg/mL | > 25 | Active | –
